The source of these data is US10450306B2, “Isoxazole analogs as FXR agonists and methods of use thereof” (Enanta Pharmaceuticals, Inc., priority 2016, dated 2019).

The assay addresses T1, human FXR (NR1H4) (Homo sapiens, UniProt Q96RI1).
T1 construct: host or cells: CHO (Chinese hamster ovary) reporter cells
T1 sequence (Q96RI1 1-486): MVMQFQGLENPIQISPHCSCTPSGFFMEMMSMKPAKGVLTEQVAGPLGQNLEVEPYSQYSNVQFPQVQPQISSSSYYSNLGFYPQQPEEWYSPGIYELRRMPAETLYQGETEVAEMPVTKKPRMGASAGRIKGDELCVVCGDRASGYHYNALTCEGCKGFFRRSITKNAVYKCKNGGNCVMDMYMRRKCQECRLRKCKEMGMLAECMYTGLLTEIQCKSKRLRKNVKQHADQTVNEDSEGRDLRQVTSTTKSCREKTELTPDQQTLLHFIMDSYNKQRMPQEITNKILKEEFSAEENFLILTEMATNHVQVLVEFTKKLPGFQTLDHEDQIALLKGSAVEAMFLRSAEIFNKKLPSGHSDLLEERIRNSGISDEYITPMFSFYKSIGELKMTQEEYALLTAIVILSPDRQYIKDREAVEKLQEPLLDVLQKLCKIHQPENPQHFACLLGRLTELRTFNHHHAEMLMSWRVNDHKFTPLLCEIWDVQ
Put plainly: Human FXR (NR1H4) Assay: Gal4 promoter driven luciferase reporter transactivation in CHO cells (Indigo Bioscience kit IB00601). As to Efficacy (%): efficacy normalized to CDCA set as 100%. In kind it is cell-based. The conditions noted are these: for Emax: CHO, read-out: Efficacy (%); for EC50: Human FXR (NR1H4) reporter assay, potency ranges. The procedure, abridged:
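Luminescence read-out after 22 h exposure quantified FXR transactivation; compounds were tested at several doses, 0.2% DMSO, in CHO cells engineered with human NR1H4 and a luciferase gene linked to an FXR-responsive promoter.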
For orientation: Reporter assays use an easily measured gene product as a stand-in for the process of interest.

With `O=C(NS(=O)(=O)N1CCCCC1)c1cc(F)c2nc(N3CCC(NCc4c(-c5c(Cl)cccc5Cl)noc4C4CC4)CC3)sc2c1` [Example 400-8], the Emax turned out to be 79% and the half-maximal effective concentration (EC50) (commonly the concentration that produces a half-maximal response) lay in the range of 0.001 to 0.1 µM.
For the compound `O=C(O)c1cc(C2CC2)c2nc(N3C4CCC3CC(NCc3c(-c5c(Cl)cccc5Cl)noc3C3CC3)C4)sc2c1` (centres unmarked) [Example 200-30], the Emax came out at 108% and the EC50 was less than 0.001 µM.
Regarding `O=C(O)c1cc(C2CC2)c2nc(N3C4CCC3CC(NCc3c(-c5c(F)cccc5F)noc3C3CC3)C4)sc2c1` (centres unmarked) [Example 1419], the Emax was 107% and the half-maximal effective concentration (EC50) fell in the range of 0.001 to 0.1 µM.
The matching figures for `CCOC(=O)c1ccc2nc(N3CCC(NCc4c(-c5c(Cl)cccc5Cl)noc4C4CC4)CC3)sc2c1` [Example 173]: 116% and greater than 1 µM.
For `O=C(NS(=O)(=O)C1CCCC1)c1ccc2nc(N3C4CCC3CC(NCc3c(-c5c(Cl)cccc5Cl)noc3C3CC3)C4)sc2c1` (centres unmarked) [Example 231], the Emax was found to be 277% and the 50% effective concentration (EC50) is less than 0.001 µM.
Regarding `CN(c1nc2ccc(C(=O)NS(=O)(=O)N(C)C)cc2s1)C1CCC(OCc2c(-c3c(Cl)cccc3Cl)noc2C2CC2)CC1` (centres unmarked) [Example 279], the Emax turned out to be 158% and the concentration for a half-maximal effect (EC50) was 0.1 to 1 µM.
Consider `CC1(S(=O)(=O)NC(=O)c2cc(F)c3nc(N4CCC(NCc5c(-c6ccccc6OC(F)(F)F)noc5C5CC5)CC4)sc3c2)CC1` [Example 900-4], for which the Emax turned out to be 84.8% and the concentration for a half-maximal effect (EC50) is greater than 1 µM.
The matching figures for `COC(=O)c1cnc2nc(N3C4CCC3CC(NCc3c(-c5c(Cl)cccc5Cl)noc3C3CC3)C4)sc2n1` (centres unmarked) [Example 200-17]: 51.5% and 0.001 to 0.1 µM.
The corresponding values for `O=C(NS(=O)(=O)N1CCCCC1)c1cc(OC(F)F)c2nc(N3C4CCC3CC(NCc3c(-c5c(Cl)cccc5Cl)noc3C3CC3)C4)sc2c1` (centres unmarked) [Example 328] are 146% and less than 0.001 µM.
The matching figures for `O=C(O)c1cc2sc(N3C4CCC3CC(NCc3c(-c5c(Cl)cccc5Cl)noc3C3CC3)C4)nc2cc1F` (centres unmarked) [Example 200-16]: 109% and 0.001 to 0.1 µM.
Consider `O=C(O)c1cc(C2CC2)c2nc(N3C4CCC3CC(NCc3c(-c5ccccc5OC(F)(F)F)noc3C3CC3)C4)sc2c1` (centres unmarked) [Example 644], for which the Emax stood at 94.5% and the EC50 is less than 0.001 µM.
Regarding `O=C(O)c1ccc2nc(N3C4CCC3CC(NCc3c(-c5ccccc5C(F)(F)F)noc3C3CC3)C4)sc2c1` (centres unmarked) [Example 1413], the Emax was found to be 90.7% and the EC50 is 0.001 to 0.1 µM.
For the compound `O=C(O)c1ccc2nc(N3CCC(NCc4c(-c5ccccc5OC(F)(F)F)noc4C4CC4)CC3)sc2c1` [Example 638], the Emax was found to be 107% and the 50% effective concentration (EC50) lay in the range of 0.1 to 1 µM.
Regarding `CC1(S(=O)(=O)NC(=O)c2cc(C3CC3)c3nc(N4C5CCC4CC(NCc4c(-c6c(Cl)cccc6Cl)noc4C4CC4)C5)sc3c2)CC1` (centres unmarked) [Example 400-35], the Emax turned out to be 117% and the EC50 was 0.001 to 0.1 µM.
The corresponding values for `COC(=O)c1cc(C2CC2)c2nc(N3C4CCC3CC(NCc3c(-c5ccccc5C(F)(F)F)noc3C3CC3)C4)sc2c1` (centres unmarked) [Example 1409] are 52% and 0.001 to 0.1 µM.
Regarding `CC1(S(=O)(=O)NC(=O)c2ccc3nc(N4C5CCC4CC(NCc4c(-c6ccccc6C6CC6)noc4C4CC4)C5)sc3c2)CC1` (centres unmarked) [Example 1422], the Emax came to 94% and the EC50 was in the range of 0.001 to 0.1 µM.
With `CC(C)(C)c1ccc(S(=O)(=O)NC(=O)c2ccc3nc(N4C5CCC4CC(NCc4c(-c6c(Cl)cccc6Cl)noc4C4CC4)C5)sc3c2)cc1` (single isomer, unassigned) [Example 262], the Emax was 289% and the EC50 was less than 0.001 µM.
In the case of `O=C(O)c1cnc2nc(N3C4CCC3CC(NCc3c(-c5c(Cl)cccc5Cl)noc3C3CC3)C4)sc2n1` (centres unmarked) [Example 200-18], the Emax came to 91.3% and the EC50 lay within 0.001 to 0.1 µM.
`COC(=O)c1cc(OC(C)C)c2nc(N3C4CCC3CC(NCc3c(-c5c(F)cccc5F)noc3C3CC3)C4)sc2c1` (centres unmarked) [Example 1423]: the Emax worked out at 78% and the EC50 is greater than 1 µM.
The corresponding values for `O=C(NS(=O)(=O)C1CC1)c1ccc(N2C3CCC2CC(NCc2c(-c4ccccc4OC(F)(F)F)noc2C2CC2)C3)nc1` (centres unmarked) [Example 900-13] are 59.5% and 0.001 to 0.1 µM.
The corresponding values for `O=C(O)c1cc(OC(F)F)c2nc(N3[C@@H]4CC[C@H]3C[C@@H](NCc3c(-c5c(Cl)cccc5Cl)noc3C3CC3)C4)sc2c1` [Example 190, 2-((1R,3r,5S)-3-(((5-cyclopropyl-3-(2,6-dichlorophenyl)isoxazol-4-yl)methyl)amino)-8-azabicyclo[3.2.1]octan-8-yl)-4-(difluoromethoxy)benzo[d]thiazole-6-carboxylic acid] are 96% and less than 0.001 µM.
Turning to `CN(C)S(=O)(=O)NC(=O)c1cc(F)c2nc(N3C4CCC3CC(NCc3c(-c5c(Cl)cccc5Cl)noc3C3CC3)C4)sc2c1` (centres unmarked) [Example 297], the Emax was 150% and the EC50 was less than 0.001 µM.
The matching figures for `CC(C)(C)CS(=O)(=O)NC(=O)c1ccc2nc(N3C4CCC3CC(NCc3c(-c5c(Cl)cccc5Cl)noc3C3CC3)C4)sc2c1` (centres unmarked) [Example 239]: 201% and 0.001 to 0.1 µM.
The matching figures for `CCOc1cc(C(=O)O)cc2sc(N3C4CCC3CC(NCc3c(-c5c(Cl)cccc5Cl)noc3C3CC3)C4)nc12` (centres unmarked) [Example 200-10]: 92.5% and less than 0.001 µM.
The corresponding values for `CC(C)Oc1cc(C(=O)NS(=O)(=O)N2CCCCC2)cc2sc(N3CCC(NCc4c(-c5c(Cl)cccc5Cl)noc4C4CC4)CC3)nc12` [Example 400-6] are 73.5% and 0.001 to 0.1 µM.
Consider `CN(Cc1c(-c2c(Cl)cccc2Cl)noc1C1CC1)[C@H]1C[C@H]2CC[C@@H](C1)N2c1nc2ccc(C(=O)NS(=O)(=O)C3(C)CC3)cc2s1` [Example 293], for which the Emax was 92% and the 50% effective concentration (EC50) is 0.001 to 0.1 µM.
The corresponding values for `O=C(O)c1cc(F)c(N2C3CCC2CC(NCc2c(-c4ccccc4OC(F)(F)F)noc2C2CC2)C3)c(F)c1` (centres unmarked) [Example 646] are 105% and 0.001 to 0.1 µM.
With `CC1(S(=O)(=O)NC(=O)c2ccc3nc(N4C5CCC4CC(NCc4c(-c6c(Cl)cccc6Cl)noc4C4CC4)C5)oc3c2)CC1` (centres unmarked) [Example 302], the Emax is 62% and the EC50 fell in the range of 0.001 to 0.1 µM.
The matching figures for `Fc1cc(-c2nn[nH]n2)ccc1N1C2CCC1CC(NCc1c(-c3c(Cl)cccc3Cl)noc1C1CC1)C2` (centres unmarked) [Example 138]: 155% and less than 0.001 µM.
The corresponding values for `CN(C)S(=O)(=O)NC(=O)c1ccc2nc(N3CCN(Cc4c(-c5c(Cl)cccc5Cl)noc4C4CC4)CC3)sc2c1` [Example 281] are 171% and 0.001 to 0.1 µM.
Regarding `COC(=O)c1ccc2nc(N3C4CCC3CC(NCc3c(-c5c(Cl)cccc5Cl)noc3C3CC3)C4)sc2c1Br` (centres unmarked) [Example 200-21], the Emax was determined as 58% and the concentration giving a half-maximal response (EC50) is 0.001 to 0.1 µM.
The matching figures for `CC1(S(=O)(=O)NC(=O)c2ccc3nc(N4C5CCC4CC(NCc4c(-c6ccccc6C(F)(F)F)noc4C4CC4)C5)sc3c2)CC1` (centres unmarked) [Example 1420]: 91% and 0.001 to 0.1 µM.
As for `O=C(O)c1ccc(N2C3CCC2CC(NCc2c(-c4ccccc4OC(F)(F)F)noc2C2CC2)C3)nc1` (centres unmarked) [Example 597], the Emax is 83.5% and the EC50 lay in the range of 0.001 to 0.1 µM.
The matching figures for `CCOC(=O)c1ccc2nc(N3[C@@H]4CC[C@H]3C[C@@H](NCc3c(-c5c(Cl)cccc5Cl)noc3C3CC3)C4)sc2c1` [Example 1, ethyl 2-((1R,3R,5S)-3-(((5-cyclopropyl-3-(2,6-dichlorophenyl)isoxazol-4-yl)methyl)amino)-8-azabicyclo[3.2.1]octan-8-yl)benzo[d]thiazole-6-carboxylate]: 74% and greater than 1 µM.
Turning to `COC(=O)c1ccc2nc(N3C4CCC3CC(NCc3c(-c5c(Cl)cccc5Cl)noc3C3CC3)C4)cnc2c1` (centres unmarked) [Example 64], the Emax stood at 40% and the EC50 was 0.001 to 0.1 µM.
The matching figures for `Cc1c(C(=O)NS(=O)(=O)N2CCCCC2)ccc2nc(N3C4CCC3CC(NCc3c(-c5c(Cl)cccc5Cl)noc3C3CC3)C4)sc12` (centres unmarked) [Example 400-14]: 119% and less than 0.001 µM.
The matching figures for `CC(C)Oc1cc(C(=O)NS(=O)(=O)C2(C)CC2)cc2sc(N3C4CCC3CC(NCc3c(-c5ccccc5C(F)(F)F)noc3C3CC3)C4)nc12` (centres unmarked) [Example 1402]: 136% and 0.001 to 0.1 µM.
Regarding `COC(=O)c1cc(OC(C)C)c2nc(N3CCC(NCc4c(-c5c(Cl)cccc5Cl)noc4C4CC4)CC3)sc2c1` [Example 200-3], the Emax came to 35% and the EC50 lay in the range of 0.1 to 1 µM.
As for `COC(=O)c1cc(OC(C)C)c2nc(N3CCC(NCc4c(-c5ccccc5OC(F)(F)F)noc4C4CC4)CC3)sc2c1` [Example 639], the Emax was 13% and the 50% effective concentration (EC50) is 0.1 to 1 µM.
The matching figures for `O=C(NS(=O)(=O)C(F)(F)F)c1ccc2nc(N3C4CCC3CC(NCc3c(-c5c(Cl)cccc5Cl)noc3C3CC3)C4)sc2c1` (centres unmarked) [Example 236]: 75% and 0.001 to 0.1 µM.
